Patent US10752913B2, “Selectable marker genes” (Dow AgroSciences LLC, priority 2006, dated 2020)

What was measured:
Format in all cases: cell-based
[1] = system: NT-1 tobacco cells transformed with pDAB3778 (DSM-2); assay: Tobacco cell culture transformation, selection frequency; settings: second experiment
Experimental: Four days prior to transformation, a 1 week old NT-1 tobacco suspension, which was being subcultured every 7 days, was subcultured to fresh medium by adding 2 ml of the NT-1 culture or 1 ml of packed cells into 40 ml NT-1 B media. The subcultured suspension was maintained in the dark at 25±1° C. on a shaker at 125 rpm.
A 50% glycerol stock of Agrobacterium tumefaciens [strain LBA4404] harboring a binary vector of interest was used to initiate a liquid overnight culture by adding 20, 100, or […] to 30 ml YEP liquid (10 g/L yeast extract, 10 g/L Peptone, 5 g/L NaCl, 0-10 g/L Sucrose) containing 50-100 mg/L spectinomycin. The bacterial culture was incubated in the dark at 28° C. in an incubator shaker at 150-250 rpm until the OD600 was 1.5±0.2. This took approximately 18-20 hrs.
For each vector tested, 20-70 mL of 4-day old suspension cells were transferred into a sterile vessel, to which 500-1750 μl of Agrobacterium suspension at the proper OD was added. To ensure a uniform mixture was achieved, the cells were pipetted up and down 5 times with a 10 ml wide-bore pipet. The uniform suspension was then drawn up into a 25 ml barrel of a repeat pipetter and 250 μl of the suspension was dispensed per well into 24-well plates, continuing until the suspension was exhausted. The well plates were wrapped in parafilm and cultured in the dark at 25±1° C. without shaking for a 3 day co-cultivation.
Following the co-cultivation, all excess liquid was removed from the individual wells with a 1 mL pipet tip, and remaining cells were resuspended in 1 ml NTC liquid (NT-1 B medium containing 500 mg/L carbenicillin, added after autoclaving). The contents of an individual well were dispersed across the entire surface of 100×25 mm selection plates using disposable transfer pipets. Selection media consisted of NTC media solidified with 8 g/l TC agar supplemented with 7.5 to 15 mg/L bialaphos or technical grade glufosinate ammonium, added after autoclaving. All selection plates, left unwrapped, were maintained in the dark at 28° C.
Putative transformants appeared as small clusters of callus on a background of dead, non-transformed cells. Calli were isolated approximately 2-6 weeks post-transformation. Each callus isolate was transferred to its own 60×20 mm plate containing the same selection medium and allowed to grow for approximately 2 weeks before being submitted for analysis.
A side-by-side experiment comparing DSM-2 (v2) with PAT was completed. In the study, 100% of the PAT selection plates produced at least one PCR positive isolate on 10 mg/L bialaphos media, whereas 79% of the DSM-2 (v2) selection plates produced at least one PCR positive isolate.
In a second experiment, DSM-2 (v2)-treated tobacco cells were selected upon 7.5, 10, 12.5, or 15 mg/L bialaphos or technical grade glufosinate ammonium. Transformation frequencies (% of selection plates producing at least one callus) following verification by coding region PCR are listed in the table below.

[2] = system: Escherichia coli BL21—Star (DE3) expressing DSM-2 (v2) (pDAB4412); assay: Complementation of cell growth on glufosinate, pET expression
Source text: A pET28a(+) expression plasmid containing PAT (v3) was constructed as a positive control. PAT (v3) was cloned as an NcoI-SacI fragment into corresponding restriction sites of pDAB779. Positive clones containing the PAT (v3) gene fragment were verified via restriction enzyme digestion. This construct was labeled as pDAB4434.
The plasmids, pDAB4434, pDAB4412, and an empty pET vector (control) were transformed into Escherichia coli BL21—Star (DE3) bacterial cells. Expression cultures were initiated with 10-200 freshly transformed colonies into 250 mL LB medium containing 50 μg/ml antibiotic and 75 μM IPTG (isopropyl-[…]). The cultures were grown at 28° C. for 24 hours at 180-200 rpm. Five microliters of the culture was inoculated onto a complex media control and minimal media containing incrementally increasing concentrations of glufosinate and 20 μM IPTG. The cultures were dispersed evenly over the plates and incubated at 28° C. for 24 hours.

[3] = system: Escherichia coli BL21—Star (DE3); assay: Bacterial growth on minimal media containing glufosinate (BASTA); settings: only strain of five tested
Experimental: Selected cell lines of Escherichia coli and Agrobacterium tumefaciens were inoculated on minimal media containing incrementally increasing concentrations of Glufosinate (BASTA). The cell lines; BL21—Star (DE3), Top10, DH5═, Agrobacterium tumefaciens C58, and Agrobacterium tumefaciens LBA4404s were initially grown up on complex media. The Escherichia coli strains were grown in LB and the Agrobacterium tumefaciens strains were grown in YEP. Five microliters of bacterial culture was inoculated and dispersed evenly onto minimal media plates containing various concentrations of glufosinate. The concentrations consisted of 0 μg/ml, 250 μg/ml, 500 μg/ml, 1000 μg/ml, 2000 μg/ml, and 4000 μg/ml of BASTA. In addition, the bacterial strains were inoculated onto a plate of complex media as a control—Agrobacterium tumefaciens strains were inoculated on YEP agar plates, and Escherichia coli strains were inoculated on LB agar plates. The plates containing the Escherichia coli strains were incubated at 37° C. for 24 hours. The plates containing the Agrobacterium tumefaciens strains were incubate at 25° C. for 48 hours. […] Table 7 illustrates the capability of the various strains to grow on minimal media containing glufosinate.

[4] = system: Escherichia coli BL21—Star (DE3) with 3264 (CsVMV promoter//DSM-2); assay: Complementation on glufosinate with plant/viral promoters; settings: DSM-2 driven by CsVMV promoter
Experimental: (§1) Plasmid constructs in which the DSM-2 (v2) and PAT gene coding sequences were expressed, under either the viral promoters CsVMV or the plant promoter AtUbi10, were assayed for complementation on minimal media containing glufosinate. The plasmids 3778 (Rb7 MARv3//AtUbi10 promoter//DSM-2 (v2)//Atu Orf 1 3′UTR), 3779 (Rb7 MARv3//AtUbi10 promoter//PAT//Atu Orf 1 3′UTR), 3264 (CsVMV promoter//DSM-2//Atu Orf24 3′UTR), 3037 (CsVMV promoter//PAT//Atu Orf 25/26 3′UTR), and 770 (control plasmid containing CsVMV promoter//GUS v3//Atu Orf 24 3′UTR) were transformed into Escherichia coli BL21—Star (DE3) and grown up in complex media. Five microliters of the cultures were plated on minimal media containing increasing concentrations of Glufosinate and incubated at 37° C. for 48 hours.

[5] = system: Escherichia coli BL21—Star (DE3) with 3778 (AtUbi10 promoter//DSM-2 (v2)); assay: as above; settings: DSM-2 driven by At Ubi10 promoter
Experimental: as §1

| Structure (SMILES) | Transformation frequencies (% of selection plates producing at least one callus) following verification by coding region PCR ([1]; 7.5 mg/L in selection medium) | Transformation frequencies (% of selection plates producing at least one callus) following verification by coding region PCR ([1]; 10 mg/L in selection medium) | Transformation frequencies (% of selection plates producing at least one callus) following verification by coding region PCR ([1]; 12.5 mg/L in selection medium) | Transformation frequencies (% of selection plates producing at least one callus) following verification by coding region PCR ([1]; 15 mg/L in selection medium) | glufosinate concentration on minimal media to which DSM-2 expression complemented resistance [2] | inhibition of growth on minimal media [3] | glufosinate concentration in minimal media to which resistance was provided [4] | glufosinate concentration in minimal media to which resistance was provided [5] |
| --- | --- | --- | --- | --- | --- | --- | --- | --- |
| C[C@H](NC(=O)[C@H](C)NC(=O)[C@@H](N)CCP(C)(=O)O)C(=O)O [Bialaphos] | 38.9% | 44.4% | 38.9% | 22.2% | – | – | – | – |
| CP(=O)(O)CCC(N)C(=O)O (stereo not drawn) [glufosinate] | 55.6% | 50.0% | 44.4% | 38.9% | 400 µg/mL | substantially inhibited | 200 µg/mL | 200 µg/mL |
